In test [1] the target is T1, 20S Human Erythrocyte Proteasome (HEP) (Homo sapiens, UniProt P20618+P28074).
T1 construct: 20S Human Erythrocyte Proteasome (HEP), purchased from Immatics Biotechnologies Inc; purchased Immatics Biotechnologies Inc., Tübingen, Germany; host or cells: human erythrocytes (natural source)
The test is described as follows: Chymotrypsin-like activity of 20S Human Erythrocyte Proteasome (HEP), IC50 determination. Particulars: assay of Example C, inhibition of HEP. The format is biochemical. The gist of the method: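 20S proteasome at 0.2 μg/mL (about 0.6 nM catalytic sites) in 20 mM Tris with 0.04% SDS, preincubated 15 min at 37° C with inhibitor before Suc-LLVY-AMC (100 μM final). AMC fluorescence read in the linear range; triplicates, IC50 from concentration series.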

For test [2], the target named is T2, proteasome in Molt-4 cells (human leukemia) (Homo sapiens, UniProt P20618+P28074).
T2 sequence (P28074 60-263): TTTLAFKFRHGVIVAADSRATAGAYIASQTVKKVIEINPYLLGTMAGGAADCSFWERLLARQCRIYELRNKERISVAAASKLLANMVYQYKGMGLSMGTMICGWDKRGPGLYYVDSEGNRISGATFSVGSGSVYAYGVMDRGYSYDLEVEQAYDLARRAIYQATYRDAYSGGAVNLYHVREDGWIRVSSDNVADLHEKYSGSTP
T2 sequence (P20618 29-241): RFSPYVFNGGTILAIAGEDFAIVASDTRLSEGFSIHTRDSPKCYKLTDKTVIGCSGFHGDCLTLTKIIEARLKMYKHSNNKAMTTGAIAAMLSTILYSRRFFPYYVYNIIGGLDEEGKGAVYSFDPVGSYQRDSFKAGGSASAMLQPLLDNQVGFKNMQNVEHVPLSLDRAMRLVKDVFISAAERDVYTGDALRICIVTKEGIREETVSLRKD
The format is cell-based. As to conditions: assay of Example E, inhibition of MOLT4; read-out: MOLT4 (EC50). The procedure, abridged:
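Intact Molt-4 cells (6×10^6 cells/mL) in HEPES-buffered saline were preincubated with inhibitor 15 min at 37 °C, then given cell-permeable MeOSuc-FLF-AFC at 25 μM final.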

A value given as a limit tells only on which side of the number the result lay.

As for `COc1ccccc1/C=C\C(=O)N[C@@H](CCCNC(=N)N[N+](=O)[O-])C(=O)N[C@@H](CC(C)C)B1O[C@@H]2C[C@@H]3C[C@@H](C3(C)C)[C@]2(C)O1` [D.3.31, cis-3-(2-Methoxyphenyl)acrylamide,N-[(1S)-1-[[[(1R)-1-[(3aS,4S,6S,7aR)-hexahydro-3a,5,5-trimethyl-4,6-methano-1,3,2-benzodioxaborol-2-yl]-3-methylbutyl]amino]carbonyl]-4-[[imino(nitroamino)methyl]amino]butyl]], in test [1], the IC50 – broadly, the point on the concentration scale where inhibition reaches its midpoint – is less than 100 nM. Further, in test [2], the EC50 (commonly the concentration giving half of the maximal effect) lay in the range of 200 to 2000 nM.

The molecule `CC(C)C[C@H](NC(=O)[C@H](CCCNC(=N)N[N+](=O)[O-])NC(=O)CSCc1ccccc1)B(O)O` [E.2.49, Boronic acid, [(1R)-1-[[(2S)-5-[[imino(nitroamino)methyl]amino]-2-[[2-[(phenylmethyl)sulfanyl]acetyl]amino]-1-oxopentyl]amino]-3-methylbutyl]] displayed an IC50 in test [1] of less than 10 nM. Moreover, in test [2], the EC50 was greater than 10000 nM.

In turn, `CC(C)C[C@H](NC(=O)[C@H](CCCNC(=N)N[N+](=O)[O-])NC(=O)CCCC(=O)c1ccsc1)B(O)O` [E.2.64, Boronic acid, [(1R)-1-[[(2S)-5-[[imino(nitroamino)methyl]amino]-2-[[5-oxo-5-(thiophen-3-yl)pentanoyl]amino]-1-oxopentyl]amino]-3-methylbutyl]] registered an IC50 in test [1] of less than 10 nM. Moreover, the EC50 in test [2] was greater than 10000 nM.

Turning to `Cc1ccc(OCC(=O)N[C@@H](CCCNC(=N)N[N+](=O)[O-])C(=O)N[C@@H](CC(C)C)B2O[C@@H]3C[C@@H]4C[C@@H](C4(C)C)[C@]3(C)O2)cc1C` [D.3.67, 2-(3,4-Dimethylphenoxy)acetamide,N-[(1S)-1-[[[(1R)-1-[(3aS,4S,6S,7aR)-hexahydro-3a,5,5-trimethyl-4,6-methano-1,3,2-benzodioxaborol-2-yl]-3-methylbutyl]amino]carbonyl]-4-[[imino(nitroamino)methyl]amino]butyl]], the IC50 in test [1] was less than 10 nM. For the same molecule, the EC50 in test [2] is less than 200 nM.

On to `CCCCC[C@H]1CC[C@H](C(=O)N[C@@H](CCCNC(=N)N[N+](=O)[O-])C(=O)N[C@@H](CC(C)C)B(O)O)CC1` [E.2.6, Boronic acid, [(1R)-1-[[(2S)-5-[[imino(nitroamino)methyl]amino]-2-[(trans-4-pentylcyclohexanecarbonyl)amino]-1-oxopentyl]amino]-3-methylbutyl]], for which, in test [1], the concentration for half-maximal inhibition (IC50) was less than 10 nM. Also, the EC50 in test [2] was 200 to 2000 nM.

`CCCCCCCC(=O)N[C@@H](CCCNC(=N)N[N+](=O)[O-])C(=O)N[C@@H](CC(C)C)B(O)O` [E.2.2, Boronic acid, [(1R)-1-[[(2S)-5-[[imino(nitroamino)methyl]amino]-2-[(octanoyl)amino]-1-oxopentyl]amino]-3-methylbutyl]] showed an IC50 in test [1] of less than 10 nM. Further, the EC50 in test [2] fell in the range of 200 to 2000 nM.

In test [1], `CC(C)C[C@H](NC(=O)[C@H](CCCNC(=N)N[N+](=O)[O-])NC(=O)CS(=O)(=O)c1ccccc1)B1O[C@@H]2C[C@@H]3C[C@@H](C3(C)C)[C@]2(C)O1` [D.3.185, 2-(Benzenesulfonyl)acetamide,N-[(1S)-1-[[[(1R)-1-[(3aS,4S,6S,7aR)-hexahydro-3a,5,5-trimethyl-4,6-methano-1,3,2-benzodioxaborol-2-yl]-3-methylbutyl]amino]carbonyl]-4-[[imino(nitroamino)methyl]amino]butyl]] returned an IC50 of less than 10 nM. The EC50 in test [2] was less than 200 nM.

In turn, `Cc1ccc(CSCCC(=O)N[C@@H](CCCNC(=N)N[N+](=O)[O-])C(=O)N[C@@H](CC(C)C)B(O)O)cc1` [D.7.26, Boronic acid, [(1R)-1-[[(2S)-5-[[imino(nitroamino)methyl]amino]-2-[[3-[(4-methylbenzyl)sulfanyl]propanoyl]amino]-1-oxopentyl]amino]-3-methylbutyl]] registered a 50% inhibitory concentration (IC50) in test [1] of less than 10 nM. Besides, the EC50 in test [2] was 2000 to 10000 nM.

`CC(C)CC(=O)N[C@@H](CCCNC(=N)N[N+](=O)[O-])C(=O)N[C@@H](CC(C)C)B(O)O` [E.2.31, Boronic acid, [(1R)-1-[[(2S)-5-[[imino(nitroamino)methyl]amino]-2-[(3-methylbutanoyl)amino]-1-oxopentyl]amino]-3-methylbutyl]] registered an IC50 in test [1] of less than 10 nM. In test [2], the EC50 is greater than 10000 nM.

For `CC(C)C[C@H](NC(=O)[C@H](CCCNC(=N)N[N+](=O)[O-])NC(=O)/C=C/c1cccs1)B(O)O` [D.7.23, Boronic acid, [(1R)-1-[[(2S)-5-[[imino(nitroamino)methyl]amino]-2-[[3-(thiophen-2-yl)propenoyl]amino]-1-oxopentyl]amino]-3-methylbutyl]], the concentration for half-maximal inhibition (IC50) in test [1] is less than 10 nM. Moreover, the EC50 in test [2] is greater than 10000 nM.

`CCC(C)C(=O)N[C@@H](CCCNC(=N)N[N+](=O)[O-])C(=O)N[C@@H](CC(C)C)B(O)O` (mixture of isomers) [E.2.35, Boronic acid, [(1R)-1-[[(2S)-5-[[immo(nitroamino)methyl]amino]-2-[((RS)-2-methylbutanoyl)amino]-1-oxopentyl]amino]-3-methylbutyl]] registered an IC50 in test [1] of less than 10 nM. Besides, the EC50 in test [2] was greater than 10000 nM.

As to “Boronic acid, [(1R)-1-[[(2S)-5- [[imino(nitroamino)methyl]amino]-2-[[(thiophene- 2-sulfonyl)acetyl]amino]-1-oxopentyl]amino]-3- methylbutyl] [E.2.69]”, in test [1], the IC50 was less than 10 nM. In addition, the EC50 in test [2] was greater than 10000 nM.

`CCCCCC/C=C/CC(=O)N[C@@H](CCCNC(=N)N[N+](=O)[O-])C(=O)N[C@@H](CC(C)C)B1O[C@@H]2C[C@@H]3C[C@@H](C3(C)C)[C@]2(C)O1` [D.3.70, (E)-Dec-3-enoic acid amide,N-[(1S)-1-[[[(1R)-1-[(3aS,4S,6S,7aR)-hexahydro-3a,5,5-trimethyl-4,6-methano-1,3,2-benzodioxaborol-2-yl]-3-methylbutyl]amino]carbonyl]-4-[[imino(nitroamino)methyl]amino]butyl]]: in test [1], the IC50 was less than 10 nM. Besides, the EC50 in test [2] is less than 200 nM.

In test [1], `COc1ccc(C(=O)N[C@@H](CCCNC(=N)N[N+](=O)[O-])C(=O)N[C@@H](CC(C)C)B2O[C@@H]3C[C@@H]4C[C@@H](C4(C)C)[C@]3(C)O2)cc1F` [D.3.94, 3-Fluoro-4-methoxybenzamide,N-[(1S)-1-[[[(1R)-1-[(3aS,4S,6S,7aR)-hexahydro-3a,5,5-trimethyl-4,6-methano-1,3,2-benzodioxaborol-2-yl]-3-methylbutyl]amino]carbonyl]-4-[[imino(nitroamino)methyl]amino]butyl]] returned an IC50 of less than 10 nM. In addition, in test [2], the EC50 was less than 200 nM.

`CCCCCCCOc1ccc(NC(=O)N[C@@H](CCCNC(=N)N[N+](=O)[O-])C(=O)N[C@@H](CC(C)C)B2O[C@@H]3C[C@@H]4C[C@@H](C4(C)C)[C@]3(C)O2)cc1` [D.6.9, N-[(1S)-1-[[[(1R)-1-[(3aS,4S,6S,7aR)-hexahydro-3a,5,5-trimethyl-4,6-methano-1,3,2-benzodioxaborol-2-yl]-3-methylbutyl]amino]carbonyl]-4-[[imino(nitroamino)methyl]amino]butyl]-N′-(4-heptyloxylphenyl) urea] registered an IC50 in test [1] of less than 10 nM. Further, the EC50 in test [2] is less than 200 nM.

In test [1], `CC(C)C[C@H](NC(=O)[C@H](CCCNC(=N)N[N+](=O)[O-])NC(=O)C(C)c1ccc(Cl)cc1)B(O)O` (mixture of isomers) [E.2.76, Boronic acid, [(1R)-1-[[(2S)-5-[[imino(nitroamino)methyl]amino]-2-[[(RS)-2-(4-chlorophenyl)propanoyl]amino]-1-oxopcntyl]amino]-3-methylbutyl]] returned an IC50 of less than 10 nM. The concentration giving a half-maximal response (EC50) in test [2] was in the range of 2000 to 10000 nM.

Take `Cc1ccc(OCC(=O)N[C@@H](CCCNC(=N)N[N+](=O)[O-])C(=O)N[C@@H](CC(C)C)B(O)O)cc1C` [E.2.22, Boronic acid, [(1R)-1-[[(2S)-5-[[imino(nitroamino)methyl]amino]-2-[[2-(3,4-dimethylphenoxy)acetyl]amino]-1-oxopentyl]amino]-3-methylbutyl]]: the IC50 in test [1] is less than 10 nM. The concentration giving a half-maximal response (EC50) in test [2] is 200 to 2000 nM.

For `CC(C)C[C@H](NC(=O)[C@H](CCCNC(=N)N[N+](=O)[O-])NC(=O)C1CCCCC1)B(O)O` [E.2.14, Boronic acid, [(1R)-1-[[(2S)-5-[[imino(nitroamino)methyl]amino]-2-[(cyclohexanecarbonyl)amino]-1-oxopentyl]amino]-3-methylbutyl]], in test [1], the IC50 is less than 10 nM. The EC50 in test [2] is greater than 10000 nM.

In the case of `CCCCCCCOc1ccc(NC(=O)N[C@@H](CCCNC(=N)N[N+](=O)[O-])C(=O)N[C@@H](CC(C)C)B(O)O)cc1` [E.2.79, Boronic acid, [(1R)-1-[[(2S)-5-[[imino(nitroamino)methyl]amino]-2-[3-[4-(heptyloxy)phenyl]-ureido]-1-oxopentyl]amino]-3-methylbutyl]], the IC50 in test [1] is less than 10 nM. The EC50 in test [2] was in the range of 200 to 2000 nM.

Source of the values: patent US8546608B2, “Proteasome inhibitors and methods of using the same” (Cephalon, Inc., priority 2003, dated 2013).
